Test results as given in ChEMBL document CHEMBL1201862, “PubChem BioAssay data set” (2004).
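Method: 48-hour compound exposure of cells in 96-well plates, five concentrations, linear interpolation of endpoints. The concentration for 50% growth inhibition is given as GI50.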 The source made the active and inactive calls. Cut-off read from the data, not from the text of the source: active = GI50 up to about 1.1 µM and inactive = higher.

What was measured:
Test in all cases: growth of human tumour cells (NCI), 48 h
786-0 = tested on: 786-0
A498 = tested on: A498
A549 = tested on: A549
CCRF-CEM = tested on: CCRF-CEM
COLO 205 = tested on: COLO 205
DMS-114 = tested on: DMS-114
HCC 2998 = tested on: HCC 2998
HCT-15 = tested on: HCT-15
MOLT-4 = tested on: MOLT-4
SF-295 = tested on: SF-295
SF-539 = tested on: SF-539
SN12C = tested on: SN12C
SR = tested on: SR
SW-620 = tested on: SW-620
UACC-62 = tested on: UACC-62
RXF 393 = tested on: RXF 393

Row | SMILES | GI50 (786-0) | GI50 (A498) | GI50 (A549) | GI50 (CCRF-CEM) | GI50 (COLO 205) | GI50 (DMS-114) | GI50 (HCC 2998) | GI50 (HCT-15) | GI50 (MOLT-4) | GI50 (SF-295) | GI50 (SF-539) | GI50 (SN12C) | GI50 (SR) | GI50 (SW-620) | GI50 (UACC-62) | GI50 (RXF 393)
1 | CC(C)(O)[C@@H]1CC[C@@]2(C)CCC[C@H](O)[C@H]2C1 | > 100 µM (inactive) | > 100 µM (inactive) | > 100 µM (inactive) | > 100 µM (inactive) | > 100 µM (inactive) | > 100 µM (inactive) | > 100 µM (inactive) | > 100 µM | > 100 µM (inactive) | > 100 µM (inactive) | > 100 µM (inactive) | > 100 µM (inactive) | > 100 µM (inactive) | > 100 µM (inactive) | > 100 µM (inactive) | –
2 | COc1ccc(N2C(=O)C3c4[nH]c5ccccc5c4C4CCCCCCC4C3C2=O)cc1 (stereo not given) | 3.13 µM (inactive) | 25.5 µM (inactive) | 6.76 µM (inactive) | 4.12 µM (inactive) | 13.2 µM (inactive) | 8.71 µM (inactive) | 11.2 µM (inactive) | 6.71 µM | 8 µM (inactive) | 11.6 µM (inactive) | 7.74 µM (inactive) | 4.79 µM (inactive) | 6.52 µM (inactive) | 7.14 µM (inactive) | 15.9 µM (inactive) | –
3 | O=C(O)C1Cc2[nH]cnc2CN1 (stereo not given) | > 100 µM (inactive) | > 100 µM (inactive) | > 100 µM (inactive) | > 100 µM (inactive) | > 100 µM (inactive) | > 100 µM (inactive) | > 100 µM (inactive) | > 100 µM | > 100 µM (inactive) | > 100 µM (inactive) | > 100 µM (inactive) | > 100 µM (inactive) | > 100 µM (inactive) | > 100 µM (inactive) | > 100 µM (inactive) | –
4 | O=C(O)CCSC(=O)Nc1cccc(F)c1 | > 100 µM (inactive) | > 100 µM (inactive) | > 100 µM (inactive) | > 100 µM (inactive) | > 100 µM (inactive) | 66.5 µM (inactive) | > 100 µM (inactive) | > 100 µM | > 100 µM (inactive) | > 100 µM (inactive) | > 100 µM (inactive) | > 100 µM (inactive) | > 100 µM (inactive) | > 100 µM (inactive) | 0.228 µM (active) | –
5 | CCOC(=O)/C(=C/c1ccc(C(F)(F)F)cc1)N(CC)CC | > 100 µM (inactive) | > 100 µM (inactive) | 38.8 µM (inactive) | > 100 µM (inactive) | > 100 µM (inactive) | 30.8 µM (inactive) | > 100 µM (inactive) | 40.6 µM | 96.4 µM (inactive) | 84.7 µM (inactive) | > 100 µM (inactive) | 53.3 µM (inactive) | > 100 µM (inactive) | 84.1 µM (inactive) | 35.4 µM (inactive) | –
6 | COC(=O)[C@]1(C)CCC[C@]2(C)C3CC4OOC3(C=C4C(C)C)CCC21 (stereo not given in full) | 5.51 µM (inactive) | 11.4 µM (inactive) | 16.8 µM (inactive) | 3.01 µM (inactive) | 19.7 µM (inactive) | 13.7 µM (inactive) | 16.5 µM (inactive) | 16.5 µM | 16.9 µM (inactive) | 16.3 µM (inactive) | 17 µM (inactive) | 16.8 µM (inactive) | 9.66 µM (inactive) | 16 µM (inactive) | 17.1 µM (inactive) | –
7 | CC(=O)OCC1OC(N2C(=O)C(=O)c3cc(C)ccc32)C(OC(C)=O)C(OC(C)=O)C1OC(C)=O (stereo not given) | 38.9 µM (inactive) | > 100 µM (inactive) | > 100 µM (inactive) | 49.5 µM (inactive) | 94.6 µM (inactive) | > 100 µM (inactive) | – | 52.8 µM | 29 µM (inactive) | > 100 µM (inactive) | > 100 µM (inactive) | 65.6 µM (inactive) | 15.5 µM (inactive) | > 100 µM (inactive) | 37.4 µM (inactive) | 39.8 µM (inactive)
